How the values were obtained:
bladder tissue [1] = details: rabbits; intravesical instillation of crushed tablets; cited from earlier work
[2] = compared with administration of equivalent oral dosages; cited from earlier work
[3] = stability of the aqueous solution during storage and transportation; assay type: physicochemical
Protocol: Accordingly, the invention provides for an aqueous trospium chloride solution prepared from two components, as described above. For the aqueous solution to remain stable for a long time during storage and transportation, the pH-value should be lower than 4.5. However, such a solution has never been considered suitable for administration to the bladder and is also unacceptable for physiological reasons. Therefore the invention assumes that the aqueous solution is prepared prior to administration with a pH-value equal to or greater than 4.5, in order to exclude from the outset ageing, storage and transportation problems.

[4] = tested on: isolated myocytes of the detrusor vesicae; details: greater than that of oxybutynin; cited from earlier work
bladder tissue [5] = assay: study on beagles concerning local compatibility following once daily intravesical instillation over 4 weeks; assay type: in vivo; details: selected formulation
[6] = oral and rectal administration forms; cited from earlier work
[7] = plasma concentrations of trospium chloride after intravesicular instillation; assay type: in vivo; details: intravesicular instillation of 7.5 mg trospium chloride/20 ml; period of 12 hours; sensitive, validated measuring method
Protocol: It is particularly advantageous to prepare said aqueous solution with a pH-value≥4.5 immediately prior to administration, in order to prevent any decomposition of the active agent trospium chloride. In particular, the pH-value of the inventive formulation is 5.0 to 7.5, so that it falls entirely within the pH-value range of the normal urine of healthy humans. […] This was confirmed by measuring plasma concentrations of trospium chloride after intravesicular instillation of 7.5 mg trospium chloride/20 ml for a period of 12 hours.

[8] = tested on: smooth muscle cells of the detrusor; assay: internal investigations: direct (musculotropic) action on smooth muscle cells of the detrusor; assay type: cell-based
Description: It will be appreciated that the active agent trospium chloride acts as an anticholinergic, i.e. it occupies receptors of the parasympathetic nervous system, without causing the effects induced by the natural neurotransmitter acetyl choline (neurotropic action). The anticholinergic power of trospium chloride in vitro is 20 times greater than that of oxybutynin (Eckert R. E., Wilhelm A., Schwantes U., Utz J. Alloussi S., Trautwein W. & Ziegler M., Modulation of the cytoplasmic Ca^2+ concentration of isolated myocytes of the detrusor vesicae by anticholinergics, Akt. Urol. 26, 46, 1995). […] These musculotropic characteristics are particularly important in the case of direct administration to the bladder.

| SMILES | inflammatory processes in the region of the bladder tissue (histological evaluation) (bladder tissue [1]) | absorption following intravesicular instillation [2] | pH-value for the aqueous solution to remain stable for a long time [3] | anticholinergic power in vitro, relative to oxybutynin [4] | local compatibility (local adverse effects to the bladder tissue) (bladder tissue [5]) | absorption from the intestinal lumen into the system [6] | plasma concentrations [7] | direct action on smooth muscle cells of the detrusor (basal Ca^2+ flow) [8] |
| --- | --- | --- | --- | --- | --- | --- | --- | --- |
| CCN(CC)CC#CCOC(=O)C(O)(c1ccccc1)C1CCCCC1 (centres unmarked) [oxybutynin] | Inflammatory processes were detected | absorbed to a greater extent | – | – | – | – | – | – |
| O=C(O[C@H]1C[C@H]2CC[C@@H](C1)[N+]21CCCC1)C(O)(c1ccccc1)c1ccccc1 [trospium chloride] | – | – | lower than 4.5 | 20 times | did not lead to local adverse effects to the bladder tissue | poor absorption | At no time plasma concentrations were detected that were above the detection limit | inhibition of the basal Ca^2+ flow |

Source: patent publication US5998430A, “Use of trospium chloride and 2-component system for the same” (Dr. R. Pfleger Chemische Fabrik GmbH, priority 1996, dated 1999)
